Assay results: article PMC11982470, “The 2-methylcitrate cycle and the glyoxylate shunt in Pseudomonas aeruginosa are linked through enzymatic redundancy” (The Journal of Biological Chemistry, 2025)

T1: AceAPa (ICLPa) (Pseudomonas aeruginosa, UniProt Q9I0K4)
T1 construct: gene PA2634; full-length, N-terminal His6 tag TEV-cleaved (pET-19m), expressed in E. coli
T1 sequence (Q9I0K4 1-531): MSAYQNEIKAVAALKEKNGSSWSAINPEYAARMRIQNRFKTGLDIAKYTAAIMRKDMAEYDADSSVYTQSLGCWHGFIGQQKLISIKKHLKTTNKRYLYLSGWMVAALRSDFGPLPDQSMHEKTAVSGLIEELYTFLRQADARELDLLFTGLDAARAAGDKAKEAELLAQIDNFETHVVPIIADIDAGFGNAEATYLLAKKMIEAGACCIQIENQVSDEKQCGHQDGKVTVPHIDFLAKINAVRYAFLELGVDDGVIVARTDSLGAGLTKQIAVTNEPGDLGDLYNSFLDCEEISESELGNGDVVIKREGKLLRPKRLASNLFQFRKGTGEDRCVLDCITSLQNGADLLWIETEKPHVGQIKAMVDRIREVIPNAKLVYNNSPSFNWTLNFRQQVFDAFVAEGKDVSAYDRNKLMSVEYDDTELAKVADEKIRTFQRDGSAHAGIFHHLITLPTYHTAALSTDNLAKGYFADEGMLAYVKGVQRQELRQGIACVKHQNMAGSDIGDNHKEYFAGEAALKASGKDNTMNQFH

T2: PrpBPa (Pseudomonas aeruginosa, UniProt Q9I5E2)
T2 construct: gene prpB; full-length, N-terminal His6 tag TEV-cleaved (pET-19m), expressed in E. coli; homotetramer (dimer of dimers)
T2 sequence (Q9I5E2 1-298): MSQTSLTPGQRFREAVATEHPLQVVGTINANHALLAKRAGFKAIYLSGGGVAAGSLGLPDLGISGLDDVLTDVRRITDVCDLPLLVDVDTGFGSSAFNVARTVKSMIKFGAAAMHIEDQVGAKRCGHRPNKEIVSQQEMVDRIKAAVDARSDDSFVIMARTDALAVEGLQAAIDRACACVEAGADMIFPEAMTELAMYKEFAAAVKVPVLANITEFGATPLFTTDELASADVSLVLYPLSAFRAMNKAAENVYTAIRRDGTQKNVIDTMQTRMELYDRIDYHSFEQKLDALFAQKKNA


Columns and labels:
[1] = target: T1, AceAPa (ICLPa); assay: phenylhydrazine-based isocitrate lyase assay, […] nm; format: biochemical; conditions: 4 mM DL-isocitric acid, 25 mM imidazole pH 7.0, 10 mM EDTA, 5 mM MgCl2
[2] = target: T1, AceAPa (ICLPa); assay: LDH-coupled assay, NADH oxidation at […] nm; format: biochemical; conditions: 50 mM Hepes pH 7.5, 2.5 mM MgCl2, 5 mM DTT, 37 °C; racemic threo substrate
[3] = target: T2, PrpBPa; assay: LDH-coupled assay, inhibitor screen, relative activity; format: biochemical; conditions: 1 mM compound, 5 min preincubation; pH 7.5, Mg2+, DTT, 37 °C
[4] = substrate: CC(O)(C(=O)O)C(CC(=O)O)C(=O)O; assay: purified protein; format: biochemical, Pseudomonas aeruginosa; conditions: 50 mM Hepes pH 7.5, 2.5 mM MgCl2, 5 mM DTT, 37 °C, DTT-pretreated enzyme, racemic threo substrate
[5] = target: the molecule itself; assay: crystal structure; apo-PrpBPa (1.8 Å) and PrpBPa with Mg2+/pyruvate (1.76 Å, crystal soak); tetramer in the asymmetric unit; crystals from Tris-HCl pH 8.5, PEG 4000, LiSO4, 5 mM DTT, 19 °C

| Molecule | relative activity at 1 mM [3] | also measured |
| --- | --- | --- |
| O=C(O)CC(C(=O)O)C(O)C(=O)O (racemic) [DL isocitric acid] |  | phenylhydrazine-based isocitrate lyase assay, 324 nm [1]: could catalyze the cleavage of isocitrate into glyoxylate and succinate |
| CC(O)(C(=O)O)C(CC(=O)O)C(=O)O (racemic) [threo-2-methylisocitrate] |  | LDH-coupled assay, NADH oxidation at 340 nm [2]: purified AceAPa demonstrated robust 2-MICL activity in vitro |
| O=C(O)CC[N+](=O)[O-] [3-nitropropionic acid] | 3-nitropropionic acid was also a potent inhibitor of PrpBPa |  |
| O=C[C@H](O)COP(=O)(O)O [D-glyceraldehyde 3-phosphate] | α-ketoglutarate, cis-aconitic acid, and D-glyceraldehyde 3-phosphate were all potent inhibitors of PrpBPa |  |
| O=C(O)/C=C\C(=O)O [Maleic acid] | Maleic acid was a nonphysiological inhibitor |  |
| O=C(O)/C=C(/CC(=O)O)C(=O)O [cis-aconitic acid] | α-ketoglutarate, cis-aconitic acid, and D-glyceraldehyde 3-phosphate were all potent inhibitors of PrpBPa |  |
| O=C(O)CCC(=O)C(=O)O [α-ketoglutarate] | α-ketoglutarate, cis-aconitic acid, and D-glyceraldehyde 3-phosphate were all potent inhibitors of PrpBPa |  |
| 2-methylisocitrate lyase PrpB from Pseudomonas aeruginosa (PrpBPa) (enzyme, Pseudomonas aeruginosa PAO1, 2-methylisocitrate lyase PrpB, Pseudomonas aeruginosa PAO1, locus PA0796, PCR-amplified from PAO1 genomic DNA and cloned into pET-19m; 32.1 kDa; In the crystal structures the termini and the active site loop (residues 121-131) are not resolved; also called 2-MICL; PA0796; source: E. coli, purified (Ni-NTA; His6 tag removed with TEV protease); not shown: His6, N-terminal, cleaved) MSQTSLTPGQRFREAVATEHPLQVVGTINANHALLAKRAGFKAIYLSGGGVAAGSLGLPDLGISGLDDVLTDVRRITDVCDLPLLVDVDTGFGSSAFNVARTVKSMIKFGAAAMHIEDQVGAKRCGHRPNKEIVSQQEMVDRIKAAVDARSDDSFVIMARTDALAVEGLQAAIDRACACVEAGADMIFPEAMTELAMYKEFAAAVKVPVLANITEFGATPLFTTDELASADVSLVLYPLSAFRAMNKAAENVYTAIRRDGTQKNVIDTMQTRMELYDRIDYHSFEQKLDALFAQKKNA |  | Km [4]: 632 ± 158 µM; kcat [4]: 48.2 ± 4.2 s⁻¹; stoichiometry N [5]: 4 |
